What was measured:
[1] = Metabolic stability test, human liver microsomes; type: in vitro ADME; settings: 37° C., 30 minutes, NADPH
Description: Commercially available pooled human liver microsomes were reacted with the compound of the present invention for a given time. A residual rate was calculated by comparison between the reacted sample and the unreacted sample to evaluate a degree at which the compound of the present invention is metabolized in the liver.
The compound was reacted at 37° C. for 0 minutes or 30 minutes in the presence of 1 mmol/L NADPH in 0.2 mL of a buffer (50 mmol/L Tris-HCl pH 7.4, 150 mmol/L potassium chloride, and 10 mmol/L magnesium chloride) containing 0.5 mg protein/mL of the human liver microsomes (oxidative reaction). After the reaction, 50 μL of the reaction solution was added to 100 μL of a solution of methanol/acetonitrile=1/1 (v/v) and mixed, and the mixture was centrifuged at 3000 rpm for 15 minutes. The compound of the present invention in the centrifuged supernatant was quantified by LC/MS/MS or solid-phase extraction (SPE)/MS. The amount of the compound of the present invention remained after the reaction was calculated with the amount of the compound at 0 minutes of the reaction defined as 100%.

[2] = tested on: leptin receptor deficient mice (db/db mice); assay: Lipid in skeletal muscle cells (IMCL) in diabetes model mice, MRS; type: in vivo; settings: 15 mg/kg single oral, 6 hours after administration
Description: (§1) In order to examine the influence of Compound I-12 on lipid in skeletal muscle cells (IMCL) of diabetes model mice, 6 hours after a single oral administration of a vehicle or Compound I-12 (15 mg/kg) to leptin receptor deficient mice (Leprdb/Leprdb, db/db; db/db mice), MR spectroscopy (MRS) data of the tibialis anterior muscle was measured using animal MRI (Varian MRI System 7T/210, Agilent Technologies) under isoflurane anesthesia. The measurement data was analyzed using software for quantitative analysis of MRS data (LCModel), and the quantity of IMCL was calculated as a creatine ratio.

[3] = tested on: ZDF rats; assay: Lipid in skeletal muscle cells (IMCL) in diabetes model rats, MRS; type: in vivo; settings: oral twice a day (7 mg/kg then 10 or 23 mg/kg), 24 hours after first administration
Description: In order to examine the influence of Compound I-12 on lipid in skeletal muscle cells (IMCL) of diabetic model rats, vehicle or Compound I-12 was orally administered to a spontaneous diabetes model (ZDF rats) twice a day (first morning administration: 7 mg/kg; second afternoon administration: 10 or 23 mg/kg), and 24 hours after the first administration, MR spectroscopy (MRS) data of the tibialis anterior muscle were measured using animal MRI (Varian MRI System 7T/210, Agilent Technologies) under isoflurane anesthesia. The measurement data was analyzed using software for quantitative analysis of MRS data (LCModel), and the quantity of IMCL was calculated as a creatine ratio.

[4] = tested on: SD rats; assay: Lipid in skeletal muscle cells (IMCL) in SD rats, MRS; type: in vivo; settings: 20 mg/kg single oral, 24 hours after administration
Description: as §1, with “I-13” for “I-12”, “(IMCL), 24” for “(IMCL) of diabetes model mice, 6”, “I-13 (20” for “I-12 (15”, “SD rats,” for “leptin receptor deficient mice (Leprdb/Leprdb, db/db; db/db mice),”

[5] = tested on: Atgl knockout mice; assay: Spontaneous motility of Atgl knockout mice; type: in vivo; settings: 45 mg/kg/10 mL repeated administration, 12 weeks of age, p<0.05, Welch's t test
Description: Atgl (adipose-triglyceride lipase) knockout mice are known as non clinical models of TGCV. Atgl knockout mice (KO mice) deficient in the Atgl gene were each produced by a known method.
In order to examine the influence of the compounds of the present invention on spontaneous motility, spontaneous motility of Atgl knockout mice was measured using SCANET MV-40 ([…]) at 12 weeks of age after repeated administration of vehicle or the compounds of the present invention to the Atgl knockout mice. The mice were allowed to stand in a cage placed in the device, and the motility thereof for 30 minutes was measured.

| Compound | Remaining amount of compound, Human [1] [%] | IMCL (creatine ratio), tibialis anterior muscle [2] | IMCL (creatine ratio), tibialis anterior muscle [3] | IMCL (creatine ratio), tibialis anterior muscle [4] | spontaneous motility (30 minutes) [5] |
| --- | --- | --- | --- | --- | --- |
| C[C@@H](COC1CCC(Oc2nc3c(F)cc(OC4CC4)cc3n2C)CC1)NC(N)=O (stereo partly drawn) [Compound I-12] | 83.3 | significant IMCL decreasing effect | significant IMCL decreasing effect |  |  |
| CC(=O)N[C@@H](C)CCC1OCC(Oc2nc3c(F)c(OC4CC4)ccc3n2C)CO1 (stereo partly drawn) [Compound I-13] | 95.4 |  |  | significant IMCL decreasing effect | significant improving effect |
